Assay results taken from patent US20240173440A1, “HIGH PURITY COPPER RADIOPHARMACEUTICAL COMPOSITIONS AND DIAGNOSTIC AND THERAPEUTIC USES THEREOF” (Nuclidium AG, priority 2022, published 2024).

Columns and labels:
[1] = Lipophilicity, log D by shake-flask method (1-octanol/PBS pH 7.4); type: physicochemical; conditions: shake-flask, Table 17, mean ± SD
In short: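 Radiotracer shaken 30 min in pre-saturated 1-octanol/PBS pH 7.4 (1:1), then centrifuged for phase separation. Radioactivity in each phase measured by gamma counting; log D reported as the average log of organic/PBS activity ratio.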

LNCaP cells = test: In vitro cellular uptake (cell surface and internalized fractions) in LNCaP cells; type: cell-based
Description: The cellular uptake was studied in vitro using intact cells seeded in 6-well plates overnight. On the day of the experiment, the cells were washed and incubated with each of the exemplified [^61Cu]Cu-radiotracer at different time points, either alone or in the presence of a blocking agent to distinguish between specific and non-specific uptake. At each investigated time point, the medium containing the unbound (free) radiotracer was removed, followed by two washing steps with ice-cold phosphate-buffered saline. The cells were then treated 2×5 min with ice-cold glycine solution (0.05 M, pH 2.8) to detach the cell surface-bound radiotracer (acid released). Afterwards, the cells containing the internalized radiotracer were detached with 1 M NaOH at 37° C. and collected for measurement. The amount of specific cell surface-bound and internalized radiotracer is expressed as percentage of the total applied activity, after subtracting the non-specific values.
2-(phosphonomethyl)-pentanedioic acid (2-PMPA, 10 μM) was used to determine non-specific binding (FIG. 14).
Cellular uptake and distribution between cell surface (cell membrane bound) and internalized fractions of ^61Cu-labeled PSMA-I&T constructs versus their ^68Ga counterparts (Table 19). The values are expressed as % of the applied activity and refer to the specific uptake calculated after subtracting the non-specific values (measured in the presence of 10 μM 2-PMPA) from the total values (specific=total−non specific).

LNCaP xenografts = test: Quantitative biodistribution in LNCaP xenografted mice; type: in vivo; conditions: for kidney uptake: 1h p.i.
Description: The mice were randomly distributed in groups and euthanized at 1 and at 4 hours post-injection. The organs of interest were collected, rinsed, blotted, weighed and counted in a gamma counter. The results are expressed as percentage of injected activity per gram (% IA/g), representing the mean±standard deviation of n=4-8 mice per group and they were obtained by extrapolation from counts of an aliquot taken from the injected solution as standard.
The biodistribution of the [^61Cu]Cu-NODAGA radiotracers was compared with the reference compounds used in patients under identical experimental conditions. The mice were randomly distributed in groups, injected with the radiotracer under investigation and euthanized at 1 and at 4 hours post-injection of the radiotracers under investigation. The organs of interest were collected, rinsed, blotted, weighed and counted in a gamma counter. The results are expressed as percentage of injected activity per gram (% IA/g), representing the mean±standard deviation of all mice per group and they were obtained by extrapolation from counts of an aliquot taken from the injected solution as standard.

[2] = LNCap xenograft mice, 1 h after injection
[3] = LNCap xenograft mice, 4 h after injection

## O=C(O)CC[C@H](NC(=O)N[C@@H](CCCCNC(=O)CCCCCCC(=O)NCCCC[C@@H](NC(=O)[C@@H](Cc1ccccc1)NC(=O)[C@@H](Cc1ccc(O)c(I)c1)NC(=O)CC[C@H](C(=O)O)N1CCN2CCN(CC1)CC(=O)[O][61Cu][O]C(=O)C2)C(=O)O)C(=O)O)C(=O)O [[^61Cu]Cu-NODAGA-PSMA-I&T]
[1]
  log D(O/PBS pH 7.4): −2.95±0.08
LNCaP cells; 5 min, specific uptake
  Cell surface fraction: 4.3 ± 0.7 % of the applied activity
  Internalized fraction: 1.2 ± 0.2 % of the applied activity
LNCaP cells; 15 min, specific uptake
  Cell surface fraction: 8.2 ± 1.0 % of the applied activity
  Internalized fraction: 3.9 ± 0.4 % of the applied activity
LNCaP cells; 30 min, specific uptake
  Cell surface fraction: 10.7 ± 1.0 % of the applied activity
  Internalized fraction: 7.0 ± 1.1 % of the applied activity
LNCaP cells; 60 min, specific uptake
  Cell surface fraction: 10.8 ± 1.8 % of the applied activity
  Internalized fraction: 11.7 ± 1.6 % of the applied activity
LNCaP cells; 120 min, specific uptake
  Cell surface fraction: 10.2 ± 1.8 % of the applied activity
  Internalized fraction: 17.6 ± 2.8 % of the applied activity
LNCaP cells; after 1 h at 37° C.
  Internalized fraction: 12±1.9%
  cellular uptake in vitro: 26.6±0.9%
LNCaP cells; after 2h at 37° C.
  PSMA-mediated cellular uptake: approx. 35%
  part of the cellular uptake being internalized: 50-60%
LNCaP xenografts; 1 hour p.i., LNCaP xenografts
  Biodistribution Adrenal: 17.3 ± 3.26 % IA/g
  Biodistribution Blood: 0.28 ± 0.06 % IA/g
  Biodistribution Bone: 2.73 ± 0.91 % IA/g
  Biodistribution Heart: 0.45 ± 0.15 % IA/g
  Biodistribution Intestine: 2.11 ± 0.78 % IA/g
  Biodistribution Kidneys: 118 ± 13 % IA/g
  Biodistribution LNCaP-tumor: 14.0 ± 5.0 % IA/g
  Biodistribution Liver: 1.02 ± 0.28 % IA/g
  Biodistribution Lung: 1.69 ± 0.45 % IA/g
  Biodistribution Muscle: 1.12 ± 0.32 % IA/g
  Biodistribution Pancreas: 0.97 ± 0.36 % IA/g
  Biodistribution Salivary glands: 2.01 ± 0.33 % IA/g
  Biodistribution Spleen: 6.04 ± 1.87 % IA/g
  Biodistribution Stomach: 1.13 ± 0.20 % IA/g
  Ratio Tumor/Blood: 55.8 ± 20.0
  Ratio Tumor/Kidney: 0.13 ± 0.03
  Ratio Tumor/Liver: 14.9 ± 4.9
  Ratio Tumor/Muscles: 13.6 ± 3.75
LNCaP xenografts; injected amount 200 μmol (so in the source)
  kidney uptake: 96 % IA/g
LNCaP xenografts; injected amount 400 μmol (so in the source)
  kidney uptake: 72 % IA/g
LNCaP xenografts; injected amount 1000 μmol (so in the source)
  kidney uptake: 34 % IA/g
LNCaP xenografts; 4 hours p.i., LNCaP xenografts
  Biodistribution Adrenal: 8.32 ± 2.87 % IA/g
  Biodistribution Blood: 0.10 ± 0.03 % IA/g
  Biodistribution Bone: 1.34 ± 0.48 % IA/g
  Biodistribution Heart: 0.22 ± 0.05 % IA/g
  Biodistribution Intestine: 1.06 ± 0.50 % IA/g
  Biodistribution Kidneys: 91 ± 10 % IA/g
  Biodistribution LNCaP-tumor: 10.7 ± 3.3 % IA/g
  Biodistribution Liver: 0.72 ± 0.11 % IA/g
  Biodistribution Lung: 0.74 ± 0.19 % IA/g
  Biodistribution Muscle: 0.50 ± 0.22 % IA/g
  Biodistribution Pancreas: 0.45 ± 0.09 % IA/g
  Biodistribution Salivary glands: 0.52 ± 0.06 % IA/g
  Biodistribution Spleen: 1.28 ± 0.39 % IA/g
  Biodistribution Stomach: 0.66 ± 0.15 % IA/g
  Ratio Tumor/Blood: 109 ± 43
  Ratio Tumor/Kidney: 0.12 ± 0.03
  Ratio Tumor/Liver: 15.4 ± 5.7
  Ratio Tumor/Muscles: 25.4 ± 12.0
LNCaP xenografts; 4h p.i., LNCaP xenograft mice, comparison with reference radiotracer, p=0.0145
  tumor uptake: 10.7±3.3 % IA/g
LNCaP xenografts; LNCaP xenografts
  accumulation in tumor and target-positive tissues: high accumulation in PSMA-positive (LNCaP) tumor and PSMA-positive tissues
LNCaP xenografts; [2]
  Biodistribution Adrenal: 17.3 ± 3.26 % IA/g
  Biodistribution Blood: 0.28 ± 0.06 % IA/g
  Biodistribution Bone: 2.73 ± 0.91 % IA/g
  Biodistribution Heart: 0.45 ± 0.15 % IA/g
  Biodistribution Intestine: 2.11 ± 0.78 % IA/g
  Biodistribution Kidney: 118 ± 13 % IA/g
  Biodistribution LNCaP-tumor: 14.0 ± 5.0 % IA/g
  Biodistribution Liver: 1.02 ± 0.28 % IA/g
  Biodistribution Lung: 1.69 ± 0.45 % IA/g
  Biodistribution Muscle: 1.12 ± 0.32 % IA/g
  Biodistribution Pancreas: 0.97 ± 0.36 % IA/g
  Biodistribution Salivary gland: 2.01 ± 0.33 % IA/g
  Biodistribution Spleen: 6.04 ± 1.87 % IA/g
  Biodistribution Stomach: 1.13 ± 0.20 % IA/g
  Ratio Tumor/Blood: 55.8 ± 20.0
  Ratio Tumor/Kidney: 0.13 ± 0.03
  Ratio Tumor/Liver: 14.9 ± 4.9
  Ratio Tumor/Muscles: 13.6 ± 3.75
LNCaP xenografts; [3]
  Biodistribution Adrenal: 8.32 ± 2.87 % IA/g
  Biodistribution Blood: 0.10 ± 0.03 % IA/g
  Biodistribution Bone: 1.34 ± 0.48 % IA/g
  Biodistribution Heart: 0.22 ± 0.05 % IA/g
  Biodistribution Intestine: 1.06 ± 0.50 % IA/g
  Biodistribution Kidney: 90.9 ± 10.1 % IA/g
  Biodistribution LNCaP-tumor: 10.7 ± 3.3 % IA/g
  Biodistribution Liver: 0.72 ± 0.11 % IA/g
  Biodistribution Lung: 0.74 ± 0.19 % IA/g
  Biodistribution Muscle: 0.50 ± 0.22 % IA/g
  Biodistribution Pancreas: 0.45 ± 0.09 % IA/g
  Biodistribution Salivary gland: 0.52 ± 0.06 % IA/g
  Biodistribution Spleen: 1.28 ± 0.39 % IA/g
  Biodistribution Stomach: 0.66 ± 0.15 % IA/g
  Ratio Tumor/Blood: 109 ± 43
  Ratio Tumor/Kidney: 0.12 ± 0.03
  Ratio Tumor/Liver: 15.4 ± 5.7
  Ratio Tumor/Muscles: 25.4 ± 12.0
